Experimental data as given in patent EP4729516A1, “S[…] DERIVATIVE, INTERMEDIATE, PREPARATION METHOD THEREFOR AND USE THEREOF” (Jiangsu NHWA Pharmaceutical Co., Ltd, priority 2023, dated 2024).

Columns and labels:
Male SD rats [1] = assay: Hypnotic efficacy: loss of righting reflex (LORR) in rats; assay type: in vivo
Description: The sequential method was used to determine the ED50 (median effective dose) for the loss of righting reflex (LORR) by the compounds of the present disclosure in rats: Male SD rats, weighing 200-300 grams, were used. Each compound was dissolved in normal saline and administered via tail vein injection at an initial dose at a constant injection rate over 10 s (one rat per dose). […] This process was repeated, and the results were recorded in the AOT425 Statpm software until the software could calculate the ED50, at which point the experiment was terminated. The hypnotic efficacy of the compounds of the present disclosure was evaluated using ED50 with lower ED50 values indicating stronger efficacy.
Comparison of onset time and duration: Male SD rats, weighing 200-300 grams, were used. Each compound was dissolved in normal saline and administered via tail vein injection at a constant injection rate over 10 s, with 10 rats per group. […] The onset time and duration were recorded.
The onset time refers to the period from the completion of injection to when the rat is placed in a supine position, with the criterion for loss of righting reflex defined as the rat's inability to spontaneously revert to a prone position using its forelimbs and maintained for ≥10 s, which serves as an indicator of compound efficacy; the duration refers to the sustained period during which the rat remains in a state of losing righting reflex. The spontaneous recovery of the righting reflex in the rat is considered the cessation of the efficacy.

Male SD rats [2] = assay: Fluctuations in blood pressure and heart rate after administration; assay type: in vivo
Description: Male SD rats, weighing 250-300 g, with 4 rats per group, were maintained under general anesthesia by isoflurane inhalation. Femoral artery cannulation was performed, and blood pressure and heart rate were monitored using a Powerlab data acquisition and analysis system. 30 min after the baseline values stabilized, the baseline mean arterial pressure (MAP0) and baseline heart rate (HR0) were measured. The rats were given a solution of each compound in normal saline via tail vein injection (the dose of each compound was the same as in Test Example 3, with rapid intravenous injection over 10 s). Blood pressure and heart rate were continuously recorded for 90 min. MAP^+ (the difference between the maximum mean arterial pressure (MAPmax) and MAP0), MAP^-(the difference between the minimum mean arterial pressure (MAPmin) and MAP0), and HR^- (the difference between the minimum heart rate (HRmin) and HR0) within 90 min were calculated. For calculation, the maximum increase rate of mean arterial pressure = MAP^+/MAP0 × 100%; the maximum decrease rate of mean arterial pressure = MAP^-/MAP0 × 100%; and the maximum decrease rate of heart rate = HR^-/HR0 × 100%.

[3] = in words, compared with dexmedetomidine hydrochloride, rats
[4] = loss of righting reflex, male SD rats, tail vein injection, dose twice the ED50, 10 rats per group
[5] = isoflurane-anesthetized male SD rats, tail vein injection, dose as in Test Example 3
[6] = isoflurane-anesthetized male SD rats, tail vein injection, dose as in Test Example 3, within 90 min

CC(c1c[nH]cn1)c1cccc2c1COC2 (stereo not drawn) [Compound 5, 4-[1-(1,3-Dihydroisobenzofuran-4-yl)ethyl]-1H-imidazole]
ED50 (Male SD rats [1]; Rattus norvegicus, loss of righting reflex, male SD rats, tail vein injection over 10 s, sequential method): 0.0625 mg/kg
Duration (Male SD rats [1]; [3]): significantly shorter
hypnotic onset time (Male SD rats [1]; [3]): comparable to or slightly longer
Duration (Male SD rats [1]; [4]): 531.10±559.16 S
Onset time (Male SD rats [1]; [4]): 99.20±29.98 S
induce sleep in rats (Male SD rats [1]; time to induce sleep, rats, dose twice the ED50): ≤ 5 min
maximum decrease rates of HR (Male SD rats [2]; [3]): lower
maximum increase rates of MAP (Male SD rats [2]; [3]): lower
recovery of HR (Male SD rats [2]; [3]): faster
HR decrease Duration (Male SD rats [2]; [5]): 30 min
MAP increase Duration (Male SD rats [2]; [5]): 2 min
HR decrease Maximum decrease rate (Male SD rats [2]; [6]): 24.7±4.5 %
MAP decrease Maximum decrease rate (Male SD rats [2]; [6]): 7.4±9.2%
MAP increase Maximum increase rate (Male SD rats [2]; [6]): 19.9±6.3%
decreases in MAP (Male SD rats [2]; no significant decreases greater than the stated value, rats): ≤ 10%
